Source: patent publication US8815849B2, “Hetero-bicyclic derivatives as HCV inhibitors” (Janssen R&D Ireland, priority 2010, dated 2014)
Where two headings read alike, the source gives them in different places.

Legend:
[1] = tested on: HCV replicon (Huh-Luc cells, NS3-NS5B regions of HCV type 1b); assay: HCV replicon assay (Huh-7 luc/neo, luciferase readout); type: cell-based; settings: average if tested more than once
Source text: The in vitro antiviral activity against HCV of the compounds of formula I can be tested in a cellular HCV replicon system based on Lohmann et al. (1999) Science 285:110-113, with the further modifications described by Krieger et al. (2001) Journal of Virology 75: 4614-4624 (incorporated herein by reference), which is further exemplified in the examples section. This model, while not a complete infection model for HCV, is widely accepted as the most robust and efficient model of autonomous HCV RNA replication currently available. It will be appreciated that it is important to distinguish between compounds that specifically interfere with HCV functions from those that exert cytotoxic or cytostatic effects in the HCV replicon model, and as a consequence cause a decrease in HCV RNA or linked reporter enzyme concentration. Assays are known in the field for the evaluation of cellular cytotoxicity based for example on the activity of mitochondrial enzymes using fluorogenic redox dyes such as resazurin. Furthermore, cellular counter screens exist for the evaluation of non-selective inhibition of linked reporter gene activity, such as firefly luciferase. Appropriate cell types can be equipped by stable transfection with a luciferase reporter gene whose expression is dependent on a constitutively active gene promoter, and such cells can be used as a counter-screen to eliminate non-selective inhibitors.
The compounds of formula (I) were examined for inhibitory activity in the HCV replicon. This cellular assay is based on a bicistronic expression construct, as described by Lohmann et al. (1999) Science vol. 285 pp. 110-113 with modifications described by Krieger et al. (2001) Journal of Virology 75: 4614-4624, in a multi-target screening strategy.
The assay utilized the stably transfected cell line Huh-7 luc/neo (hereafter referred to as Huh-Luc). This cell line harbors an RNA encoding a bicistronic expression construct comprising the wild type NS3-NS5B regions of HCV type 1b translated from an
Internal Ribosome Entry Site (IRES) from encephalomyocarditis virus (EMCV), preceded by a reporter portion (FfL-luciferase), and a selectable marker portion (neo^R, neomycine phosphotransferase). The construct is flanked by 5′ and 3′ NTRs (non-translated regions) from HCV type 1b. Continued culture of the replicon cells in the presence of G418 (neo^R) is dependent on the replication of the HCV RNA. The stably transfected replicon cells that express HCV RNA, which replicates autonomously and to high levels, encoding inter alia luciferase, were used for screening the antiviral compounds.
The replicon cells were plated in 384 well plates in the presence of the test and control compounds which were added in various concentrations. Following an incubation of three days, HCV replication was measured by assaying luciferase activity (using standard luciferase assay substrates and reagents and a Perkin Elmer ViewLux™ ultraHTS microplate imager). Replicon cells in the control cultures have high luciferase expression in the absence of any inhibitor. The inhibitory activity of the compound on luciferase activity was monitored on the Huh-Luc cells, enabling a dose-response curve for each test compound. EC50 values were then calculated, which represent the amount of compound required to decrease the level of detected luciferase activity by 50%, or more specifically, to reduce the ability of the genetically linked HCV replicon RNA to replicate.
Where a compound of formula (I) was tested more than once in the replicon assay, the average of all test results is given in this Table 1.

LLC-MDR1 monolayers = type: in vitro ADME; settings: pig, LLC-PK1, 120 min
Protocol: Assay Description for the Measurement of Transepithelial Transport of Test Compounds Through LLC-MDR1 Monolayers
The integrity of the cellular monolayer was assessed in each incubation well through the inclusion of the fluorescent, low permeability marker compound, Fluorescein.
In detail, LLC-MDR1 cells (LLC-PK1 cells stably transduced with MDR1 in a trans-well system) were seeded on 24-well cell culture inserts (Millicell®-PCF, 0.4 μm, 13 mm Ø, 0.7 cm^2) at 400 000 cells/cm^2. Cell culture medium consists of Medium 199 supplemented with 10% Fetal Bovine Serum (FBS) and 100 U/mL Penicillin/streptomycin and was replaced the day after seeding and the day before the experiment. The transport experiment was performed 5 days after seeding. On the day of the experiment, solutions of the test compounds were applied to the apical side of the monolayers to assess transport in the AtoB direction,. The medium used in the assay was (OPTI-MEM (1×) (GIBCO) with 1 w/v % Bovine Serum Albumin. Inserts were incubated at 37° C. in a humidified incubator containing 5% CO2. Samples from the acceptor and donor compartments were collected after an incubation time of 120 min, to assess the permeability and to allow estimation of the test compound recovery during the experiment, respectively. Transport experiments were performed in triplicate. Absolute test compound concentrations were measured using LC-MS/MS and quantified via a calibration curve.

[2] = Hepatitis C virus, Huh-7, 72 h, Huh-Luc replicon cells, three days incubation, luciferase activity, read-out: HCV-REP-HUH7LUC_EC50
[3] = Huh-Luc replicon cells, three days incubation, luciferase activity, read-out: HCV-REP-HUH7LUC_EC50

Structure (SMILES)	EC50 [1, 2] [nM]	EC50 [1, 3] [nM]	also measured
CC[C@H](NC(=O)OC)C(=O)N1CCCC1c1cc(=O)c2ccc(-c3ccc4cc(-c5cnc([C@@H]6CCCN6C(=O)[C@@H](NC(=O)OC)C(C)C)[nH]5)ccc4c3)cc2[nH]1 (stereo partly shown) [Compound 13-A2]	0.079		
CC[C@H](C)[C@H](NC(=O)OC)C(=O)N1CCCC1c1cc(=O)c2cc(-c3ccc4cc(-c5cnc([C@@H]6CCCN6C(=O)[C@@H](NC(=O)OC)[C@@H](C)CC)[nH]5)ccc4c3)ccc2[nH]1 (stereo partly shown) [Compound 24]		0.048	
COC(=O)N[C@H](C(=O)N1CCCC1c1cc(=O)c2cc(-c3ccc4cc(-c5cnc([C@@H]6CCCN6C(=O)[C@@H](NC(=O)OC)C(C)C)[nH]5)ccc4c3)ccc2[nH]1)C(C)C (stereo partly shown) [Compound 22]		0.075	
COC(=O)N[C@H](C(=O)N1CCC[C@H]1C1=NS(=O)(=O)c2ccc(-c3ccc4cc(-c5cnc([C@@H]6CCCN6C(=O)[C@@H](NC(=O)OC)C(C)C)[nH]5)ccc4c3)cc2N1)C(C)C [Compound 84]	0.034		A->B permeability (Papp × 10^−6 cm/sec) in the presence the P-gp inhibitor GF120918 (LLC-MDR1 monolayers): 0.4 10^−6 cm/sec
COC(=O)N[C@H](C(=O)N1CCCC1c1cc2ccc(-c3ccc4cc(-c5cnc([C@@H]6CCCN6C(=O)[C@@H](NC(=O)OC)C(C)C)[nH]5)ccc4c3)cc2c(=O)[nH]1)C(C)C (stereo partly shown) [Compound 20]	0.79		
CC[C@H](C)[C@H](NC(=O)OC)C(=O)N1CCCC1c1cc(=O)c2cc(-c3ccc4cc(-c5cnc([C@@H]6CCCN6C(=O)[C@@H](NC(=O)OC)[C@@H](C)CC)[nH]5)ccc4c3)ccc2[nH]1 (single isomer, unassigned) [Compound 24a]		9.6	
COC(=O)N[C@H](C(=O)N1CCC[C@H]1c1ncc(-c2ccc3cc(-c4ccc5c(=O)[nH]c([C@@H]6CCCN6C(=O)[C@H](NC(=O)OC6CCC6)c6ccccc6)nc5c4)ccc3c2)[nH]1)C(C)C [Compound 44-4]	9.8		
COC(=O)N[C@H](C(=O)N1CCCC1c1cc(=O)c2cc(-c3ccc4cc(-c5cnc([C@@H]6CCCN6C(=O)[C@@H](NC(=O)OC)[C@@H](C)OC)[nH]5)ccc4c3)ccc2[nH]1)[C@@H](C)OC (stereo partly shown) [Compound 23b]		0.34	
CC[C@H](C)[C@H](NC(=O)OC)C(=O)N1CCCC1c1cc(=O)c2ccc(-c3ccc4cc(-c5cnc([C@@H]6CCCN6C(=O)[C@@H](NC(=O)OC)C(C)C)[nH]5)ccc4c3)cc2[nH]1 (stereo partly shown) [Compound 13-A3]			A->B permeability (Papp × 10^−6 cm/sec) in the presence the P-gp inhibitor GF120918 (LLC-MDR1 monolayers): 0.9 10^−6 cm/sec
COC(=O)N[C@H](C(=O)N1CCCC1c1cc(=O)c2ccc(-c3ccc4cc(-c5cnc([C@@H]6CCCN6C(=O)[C@@H](NC(=O)OC)C(C)C)[nH]5)ccc4c3)cc2[nH]1)C(C)C (stereo partly shown) [Compound 13a]		0.91	
COC(=O)N[C@H](C(=O)N1CCC[C@H]1c1ncc(-c2ccc3cc(-c4ccc5c(=O)cc(C6C[C@@H]7CCCC[C@@H]7N6C(=O)[C@@H](NC(=O)OC)C(C)C)[nH]c5c4)ccc3c2)[nH]1)C(C)C (stereo partly shown) [Compound 119a]	0.033		
COC[C@H](NC(=O)OC(C)(C)C)C(=O)N1CCCC1c1cc(=O)c2ccc(-c3ccc4cc(-c5cnc([C@@H]6CCCN6C(=O)[C@@H](NC(=O)OC)C(C)C)[nH]5)ccc4c3)cc2[nH]1 (stereo partly shown) [Compound 13-A7]	0.053		
COCC[C@H](NC(=O)OC)C(=O)N1CCCC1c1cc(=O)c2ccc(-c3ccc4cc(-c5cnc([C@@H]6CCCN6C(=O)[C@@H](NC(=O)OC)C(C)C)[nH]5)ccc4c3)cc2[nH]1 (stereo partly shown) [Compound 13-A6]	0.5		
COC(=O)NC(C(=O)N1CCCC1c1cc(=O)c2ccc(-c3ccc4cc(-c5cnc([C@@H]6CCCN6C(=O)[C@@H](NC(=O)OC)C(C)C)[nH]5)ccc4c3)cc2[nH]1)C1CCOCC1 (stereo partly shown) [Compound 13-A4]	1.2		
COC(=O)N[C@H](C(=O)N1CCCC1c1cc(=O)c2cc(-c3ccc4cc(-c5cnc([C@@H]6CCCN6C(=O)[C@@H](NC(=O)OC)C(C)C)[nH]5)ccc4c3)ccc2[nH]1)C(C)C (single isomer, unassigned) [Compound 22a]		3.4	
COC(=O)N[C@H](C(=O)N1CCCC1c1cc(=O)c2cc(-c3ccc4cc(-c5cnc([C@@H]6CCCN6C(=O)[C@@H](NC(=O)OC)[C@@H](C)OC)[nH]5)ccc4c3)ccc2[nH]1)[C@@H](C)OC (stereo partly shown) [Compound 23]	0.47		
COC(=O)N[C@H](C(=O)N1CCCC1c1[nH]c2cc(-c3ccc4cc(-c5cnc([C@@H]6CCCN6C(=O)[C@@H](NC(=O)OC)C(C)C)[nH]5)ccc4c3)ccc2c(=O)c1Cl)C(C)C (single isomer, unassigned) [Compound 106b]		20.6	
COC(=O)N[C@H](C(=O)N1CCCC1c1[nH]c2cc(-c3ccc4cc(-c5cnc([C@@H]6CCCN6C(=O)[C@@H](NC(=O)OC)C(C)C)[nH]5)ccc4c3)ccc2c(=O)c1C)C(C)C (stereo partly shown) [Compound 102b]	20.6		
COC(=O)N[C@H](C(=O)N1CCCC1c1cc(=O)c2ccc(-c3ccc4cc(-c5cnc([C@@H]6CCCN6C(=O)[C@@H](NC(=O)OC)C(C)C)[nH]5)ccc4c3)cc2[nH]1)C(C)C (stereo partly shown) [Compound 13]		0.028	
COC(=O)N[C@H](C(=O)N1CCCC1c1[nH]c2cc(-c3ccc4cc(-c5cnc([C@@H]6CCCN6C(=O)[C@@H](NC(=O)OC)C(C)C)[nH]5)ccc4c3)ccc2c(=O)c1Cl)C(C)C (single isomer, unassigned) [Compound 106a]		0.12	
COC(=O)N[C@H](C(=O)N1CCCC1c1cc(=O)c2cc(-c3ccc4cc(-c5cnc([C@@H]6CCCN6C(=O)[C@@H](NC(=O)OC)C(C)C)[nH]5)ccc4c3)ccc2[nH]1)C(C)C (single isomer, unassigned) [Compound 22b]		0.052	
COC(=O)N[C@H](C(=O)N1CCC[C@H]1c1ncc(-c2ccc3cc(-c4ccc5c(=O)[nH]c([C@@H]6CCCN6C(=O)[C@H](NC(=O)OC6CCCC6)c6ccccc6)nc5c4)ccc3c2)[nH]1)C(C)C [Compound 44-3]	1		
COC[C@H](NC(=O)OC)C(=O)N1CCCC1c1cc(=O)c2ccc(-c3ccc4cc(-c5cnc([C@@H]6CCCN6C(=O)[C@@H](NC(=O)OC)C(C)C)[nH]5)ccc4c3)cc2[nH]1 (stereo partly shown) [Compound 13-A8]	0.18		
COC(=O)N[C@H](C(=O)N1CCCC1c1cc2ccc(-c3ccc4cc(-c5cnc([C@@H]6CCCN6C(=O)[C@@H](NC(=O)OC)[C@@H](C)OC)[nH]5)ccc4c3)cc2c(=O)[nH]1)[C@@H](C)OC (stereo partly shown) [Compound 20-A]			EC50 ([1]; Hepatitis C virus, Huh-7, 72 h, read-out: HCV-REP-HUH7LUC_EC50 (nM), Huh-Luc replicon cells, three days incubation, luciferase activity): 0.2 nM
COC(=O)N[C@H](C(=O)N1CCCC1c1cc(=O)c2ncc(-c3ccc4cc(-c5cnc([C@@H]6CCCN6C(=O)[C@@H](NC(=O)OC)C(C)C)[nH]5)ccc4c3)cc2[nH]1)C(C)C (stereo partly shown) [Compound 97]	0.24		
COC(=O)N[C@H](C(=O)N1CCC[C@H]1c1ncc(-c2ccc3cc(-c4ccc5c(=O)cc(C6CCCN6C(=O)[C@@H](NC(=O)OC)[C@@H](C)OC)[nH]c5c4)ccc3c2)[nH]1)C(C)C (stereo partly shown) [Compound 13-A1]	0.1		
CC[C@@H](C)[C@H](NC(=O)OC)C(=O)N1CCCC1c1cc(=O)c2ccc(-c3ccc4cc(-c5cnc([C@@H]6CCCN6C(=O)[C@@H](NC(=O)OC)C(C)C)[nH]5)ccc4c3)cc2[nH]1 (stereo partly shown) [Compound 13-A5]	0.062		
